Like-named read-outs stand apart in the source and are kept apart here.

The values that follow come from publication PMC10824666 (Nature Cancer, 2023).

Holding throughout (experiment): biochemical
Design in all cases: Eurofins DiscoverX kinase panel, competitive binding assay at 1 uM, percent of DMSO control
Common to all, as to settings: competitive binding, percent of DMSO control

One test addresses T1, IGF-1R (Homo sapiens, UniProt P08069).
T1 construct: gene IGF1R
An outline of the steps:
(§1)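 Single-point profiling at 1 µM compound in a competition-binding format against 96 kinases, read out as POC relative to control; n = 1.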

The next test addresses T2, CHK1 (Homo sapiens, UniProt O14757).
T2 construct: gene CHEK1
T2 sequence (O14757 1-476): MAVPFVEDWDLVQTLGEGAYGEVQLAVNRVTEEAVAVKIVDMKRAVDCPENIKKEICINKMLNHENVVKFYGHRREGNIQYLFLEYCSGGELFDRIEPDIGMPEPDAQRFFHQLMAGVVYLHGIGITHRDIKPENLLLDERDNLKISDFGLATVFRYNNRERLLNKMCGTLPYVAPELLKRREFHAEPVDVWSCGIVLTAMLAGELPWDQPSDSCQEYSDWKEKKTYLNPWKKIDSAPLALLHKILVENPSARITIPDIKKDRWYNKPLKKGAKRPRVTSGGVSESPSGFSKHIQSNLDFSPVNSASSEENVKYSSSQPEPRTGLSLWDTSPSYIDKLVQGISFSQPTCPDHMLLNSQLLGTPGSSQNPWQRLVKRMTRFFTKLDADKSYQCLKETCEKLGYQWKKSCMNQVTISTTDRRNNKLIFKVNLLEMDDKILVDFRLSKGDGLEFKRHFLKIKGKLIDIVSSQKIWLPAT
An outline of the steps: as §1

A further test has as its target T3, MST2 (Homo sapiens, UniProt Q13188).
T3 construct: gene STK3
T3 sequence (Q13188 1-491): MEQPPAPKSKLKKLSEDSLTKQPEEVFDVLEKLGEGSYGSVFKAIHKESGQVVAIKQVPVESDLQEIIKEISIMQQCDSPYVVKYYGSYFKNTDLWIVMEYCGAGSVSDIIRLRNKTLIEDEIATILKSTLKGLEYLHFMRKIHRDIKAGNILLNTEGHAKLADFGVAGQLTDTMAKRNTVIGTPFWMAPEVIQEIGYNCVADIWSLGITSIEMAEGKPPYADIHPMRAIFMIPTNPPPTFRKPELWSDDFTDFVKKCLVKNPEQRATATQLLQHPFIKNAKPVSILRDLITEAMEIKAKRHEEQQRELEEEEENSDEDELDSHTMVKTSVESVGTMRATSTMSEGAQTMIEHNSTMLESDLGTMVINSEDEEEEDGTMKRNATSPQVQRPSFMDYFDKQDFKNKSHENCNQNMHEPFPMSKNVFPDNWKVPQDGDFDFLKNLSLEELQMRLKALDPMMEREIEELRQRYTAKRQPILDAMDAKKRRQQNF
The method in brief: as §1

A further test concerns the target MARK1 (Homo sapiens, UniProt Q9P0L2). The method in brief: as §1
Another test concerns the target T4, ROCK 2 (Homo sapiens, UniProt O75116).
T4 construct: gene ROCK2
An outline of the steps: as §1

The mark [1] stands for this setting: read-out: Kinome Profiling performed by Eurofins DiscoverX / AM-0277, 1.0 µM / POC.
Setting [2] is: read-out: Kinome Profiling performed by Eurofins DiscoverX / AM-1882, 1.0 µM / POC.
The mark [3] stands for this setting: read-out: Kinome Profiling performed by Eurofins DiscoverX / AM-5308, 1.0 µM / POC.

Chain of MARK1 (Q9P0L2 whole entry): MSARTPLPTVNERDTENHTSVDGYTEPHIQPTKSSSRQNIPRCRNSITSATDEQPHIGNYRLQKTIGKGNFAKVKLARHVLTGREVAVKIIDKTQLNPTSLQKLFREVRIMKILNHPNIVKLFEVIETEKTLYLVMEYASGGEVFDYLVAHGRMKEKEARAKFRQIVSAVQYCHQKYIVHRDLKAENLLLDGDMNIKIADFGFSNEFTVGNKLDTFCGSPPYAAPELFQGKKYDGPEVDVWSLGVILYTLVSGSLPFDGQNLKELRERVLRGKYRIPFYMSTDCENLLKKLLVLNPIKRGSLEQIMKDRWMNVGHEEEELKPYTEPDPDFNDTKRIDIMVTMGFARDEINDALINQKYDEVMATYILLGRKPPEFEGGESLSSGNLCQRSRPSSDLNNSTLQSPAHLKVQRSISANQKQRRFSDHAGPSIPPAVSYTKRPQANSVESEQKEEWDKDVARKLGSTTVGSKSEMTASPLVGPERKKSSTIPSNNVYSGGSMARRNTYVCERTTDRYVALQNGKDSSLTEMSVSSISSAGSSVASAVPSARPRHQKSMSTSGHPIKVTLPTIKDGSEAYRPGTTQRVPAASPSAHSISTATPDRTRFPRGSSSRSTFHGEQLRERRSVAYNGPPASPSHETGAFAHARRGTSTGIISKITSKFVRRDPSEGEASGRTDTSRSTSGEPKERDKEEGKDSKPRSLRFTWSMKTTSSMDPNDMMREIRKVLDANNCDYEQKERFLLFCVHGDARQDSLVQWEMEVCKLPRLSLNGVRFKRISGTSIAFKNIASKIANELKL
T1 sequence (P08069 whole entry): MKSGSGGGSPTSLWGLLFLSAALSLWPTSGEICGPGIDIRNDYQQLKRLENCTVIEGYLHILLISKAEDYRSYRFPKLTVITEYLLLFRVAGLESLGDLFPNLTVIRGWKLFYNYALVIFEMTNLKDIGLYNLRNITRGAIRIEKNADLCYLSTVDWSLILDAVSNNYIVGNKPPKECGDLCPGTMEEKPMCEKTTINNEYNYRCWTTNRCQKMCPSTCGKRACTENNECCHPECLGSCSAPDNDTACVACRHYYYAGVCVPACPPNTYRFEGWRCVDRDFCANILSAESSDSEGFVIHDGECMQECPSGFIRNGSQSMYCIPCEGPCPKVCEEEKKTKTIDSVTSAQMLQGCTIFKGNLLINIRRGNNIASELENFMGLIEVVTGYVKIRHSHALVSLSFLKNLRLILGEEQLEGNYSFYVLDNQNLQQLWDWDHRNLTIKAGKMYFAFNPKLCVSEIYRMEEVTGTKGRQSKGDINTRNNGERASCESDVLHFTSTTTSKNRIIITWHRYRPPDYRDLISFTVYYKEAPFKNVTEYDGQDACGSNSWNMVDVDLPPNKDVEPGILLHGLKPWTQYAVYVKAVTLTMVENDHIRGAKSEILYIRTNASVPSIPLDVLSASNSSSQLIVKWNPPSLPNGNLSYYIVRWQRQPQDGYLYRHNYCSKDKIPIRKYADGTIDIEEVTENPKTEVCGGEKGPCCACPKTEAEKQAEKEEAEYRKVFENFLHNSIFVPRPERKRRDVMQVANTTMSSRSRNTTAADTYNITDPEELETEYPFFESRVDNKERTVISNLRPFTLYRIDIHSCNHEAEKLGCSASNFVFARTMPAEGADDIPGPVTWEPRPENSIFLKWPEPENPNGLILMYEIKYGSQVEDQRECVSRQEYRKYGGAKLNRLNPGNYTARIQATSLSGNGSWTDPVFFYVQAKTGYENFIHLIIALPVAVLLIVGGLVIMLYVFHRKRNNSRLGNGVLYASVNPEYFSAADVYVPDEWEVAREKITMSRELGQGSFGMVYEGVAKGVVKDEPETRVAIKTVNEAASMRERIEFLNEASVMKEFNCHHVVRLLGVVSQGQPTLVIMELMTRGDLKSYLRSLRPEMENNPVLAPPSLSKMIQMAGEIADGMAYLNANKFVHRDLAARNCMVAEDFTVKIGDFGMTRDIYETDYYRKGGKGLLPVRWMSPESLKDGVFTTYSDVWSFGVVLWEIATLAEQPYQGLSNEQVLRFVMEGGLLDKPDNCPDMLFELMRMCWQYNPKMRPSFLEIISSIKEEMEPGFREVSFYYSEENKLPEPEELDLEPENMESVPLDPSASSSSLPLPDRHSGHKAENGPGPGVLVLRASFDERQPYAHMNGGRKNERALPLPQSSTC
T4 sequence (O75116 whole entry): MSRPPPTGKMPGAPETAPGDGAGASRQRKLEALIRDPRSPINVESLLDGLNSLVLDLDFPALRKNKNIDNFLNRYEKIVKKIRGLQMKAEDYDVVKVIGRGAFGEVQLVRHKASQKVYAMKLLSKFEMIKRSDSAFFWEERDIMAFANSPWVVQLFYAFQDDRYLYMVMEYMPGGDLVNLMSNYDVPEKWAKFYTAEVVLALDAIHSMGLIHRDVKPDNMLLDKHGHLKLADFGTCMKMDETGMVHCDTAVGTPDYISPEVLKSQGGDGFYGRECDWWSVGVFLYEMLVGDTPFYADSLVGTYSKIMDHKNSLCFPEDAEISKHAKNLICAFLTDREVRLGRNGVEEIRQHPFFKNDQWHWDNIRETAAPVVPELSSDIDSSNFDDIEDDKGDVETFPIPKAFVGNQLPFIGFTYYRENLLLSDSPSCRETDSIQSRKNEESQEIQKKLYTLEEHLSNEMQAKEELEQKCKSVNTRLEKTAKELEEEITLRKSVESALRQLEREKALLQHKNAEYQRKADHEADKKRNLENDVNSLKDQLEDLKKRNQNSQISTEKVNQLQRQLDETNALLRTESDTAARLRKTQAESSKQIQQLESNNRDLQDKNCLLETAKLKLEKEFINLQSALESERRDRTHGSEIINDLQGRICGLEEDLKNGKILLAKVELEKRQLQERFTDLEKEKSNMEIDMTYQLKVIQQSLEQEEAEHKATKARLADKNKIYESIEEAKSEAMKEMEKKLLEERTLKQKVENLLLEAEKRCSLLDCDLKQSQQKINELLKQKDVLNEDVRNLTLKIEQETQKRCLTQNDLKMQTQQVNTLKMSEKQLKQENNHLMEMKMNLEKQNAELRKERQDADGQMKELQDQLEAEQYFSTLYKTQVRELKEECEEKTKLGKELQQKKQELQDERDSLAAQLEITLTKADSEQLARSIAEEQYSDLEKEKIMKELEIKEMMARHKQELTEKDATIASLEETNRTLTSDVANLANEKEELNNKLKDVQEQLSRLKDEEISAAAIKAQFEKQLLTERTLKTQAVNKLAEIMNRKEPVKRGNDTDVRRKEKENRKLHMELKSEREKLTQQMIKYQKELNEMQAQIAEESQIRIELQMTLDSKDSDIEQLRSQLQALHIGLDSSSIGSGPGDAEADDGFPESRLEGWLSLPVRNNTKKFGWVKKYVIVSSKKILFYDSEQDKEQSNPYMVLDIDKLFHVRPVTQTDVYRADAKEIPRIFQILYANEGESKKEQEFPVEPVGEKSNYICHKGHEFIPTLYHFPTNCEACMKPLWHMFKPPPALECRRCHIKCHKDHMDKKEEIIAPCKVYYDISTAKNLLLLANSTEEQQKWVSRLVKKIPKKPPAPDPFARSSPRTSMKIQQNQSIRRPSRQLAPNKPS

For the compound `CC(C)(CO)Nc1ccc(C(=O)Nc2cccc(S(=O)(=O)C3CCCC3)c2)c(N2CCC3(CC2)CC3)n1` [AM-0277], the remaining activity at 1 µM on IGF-1R (setting [1]) was determined as 97%; on CHK1 (setting [1]) it was 100%; at MST2 (setting [1]), 49%; on MARK1 (setting [1]) it was 96%; at ROCK 2 (setting [1]), 100%.

Take `CC(C)(C)NS(=O)(=O)c1cccc(NC(=O)c2ccc(S(=O)(=O)NC(C)(C)C)cc2N2CCC3(CC2)CC3)c1` [AM-1882]: the remaining activity at 1 µM at IGF-1R (setting [2]) worked out at 83%; at CHK1 (setting [2]), 100%; on MST2 (setting [2]), 91.5%; on MARK1 (setting [2]) it was 100%; on ROCK 2 (setting [2]) it was 77%.

In the case of `C[C@@H]1CN(c2cccc(NC(=O)c3ccc(NS(=O)(=O)CCO)cc3N3CCC4(CC3)CC4)n2)CCO1` [AM-5308], the remaining activity at 1 µM at IGF-1R (setting [3]) was found to be 86.5%; at CHK1 (setting [3]), 100%; on MST2 (setting [3]) it was 86.5%; at MARK1 (setting [3]) it was 98.5%; at ROCK 2 (setting [3]), 97.5%.
